Experimental data as given in patent US20240165112A1, “THERAPY FOR THE TREATMENT OF CANCER” (Bristol-Myers Squibb Company, priority 2022, published 2024).

Legend:
NCI-H460 cell line = assay: 2D cell line viability assay (cell confluence); format: cell-based; settings: Homo sapiens, NCI-H460, 96 h, 4 days
Description: (§1) FIGS. 4A-4E illustrate the effects of Compound 1 on the Potency of Paclitaxel in a 2D Cell Line Viability Assay. […] Data points indicate mean and Standard Deviation of 2 biological replicates. Graphs are representative of at least 2 independent experiments. […] Abbreviations: DMSO, dimethylsulfoxide.

A549 cell line = assay: 2D cell line viability assay (cell confluence); format: cell-based; settings: Homo sapiens, A549, 96 h, 4 days
Description: as §1

HT29 cell line = assay: 2D cell line viability assay (cell confluence); format: cell-based; settings: Homo sapiens, HT-29, 96 h, 4 days
Description: as §1

[1] = test system: Five tumor cell lines (4T1.2, A549, EMT6, NCI-H460, and HT29)
Description: (§2) Five tumor cell lines (4T1.2, A549, EMT6, NCI-H460, and HT29) were treated with a range of paclitaxel or 5-FU concentrations in the presence of dimethlylsulfoxide (DMSO), 5 μM Compound 1, or 20 μM Compound 1. Cells were imaged 4 days after treatment and percent confluence was assessed by image quantification. EC50 values for cell confluence were used to assess chemotherapy potency. Eleven patient-derived tumor organoids (MAXFTN449, MAXFTN2990, PAXF1657, PAXF2131, CXF1256, CXF2129, CXF2061, LXFE2478, LXFE690, LXFA677, LXFA644) were seeded in a 3D matrix and treated with a range of paclitaxel, 5-FU, SN38, Gemcitabine, oxaliplatin, and carboplatin concentrations in the presence of DMSO, 5 μM Compound 1, or 20 μM Compound 1. After 8 to 13 days in culture, colonies were stained, imaged, and counted. A dose response curve was generated for chemotherapy alone or chemotherapy in combination with 5 or 20 μM Compound 1. Combination activity was defined as a percentage of the area under the chemotherapy dose response curve (cAUC) for Compound 1 combination groups compared to the cAUC of chemotherapy alone.

EMT6 cell line = assay: 2D cell line viability assay (cell confluence); format: cell-based, murine; settings: Mus musculus, EMT6, 96 h, 4 days
Description: as §1

4T1.2 cell line = assay: 2D cell line viability assay (cell confluence); format: cell-based, murine; settings: Mus musculus, 4T1.2, 96 h
Description: as §1

[2] = test system: CXF2061 organoid, colon cancer; assay: 3D clonogenic assay in patient derived organoids; format: cell-based, human
Description: as §2
(§3) For combination experiments, working stock solutions of all compounds were prepared in DMSO at concentrations of 660-fold the highest test concentration used and stored at −20° C. Platin compounds were prepared freshly on each treatment day. On each day of an experiment, an aliquot of the working stock solutions was used and stored at room temperature prior to and during treatment. First, 1:2 dilutions of 660-fold concentrated working stocks were prepared in DMSO (in case of monotherapy controls), or equal amounts of the compound working stocks were mixed (in case of drug combinations). Then, different dilutions of these 330-fold concentrated solutions were prepared in DMSO to give an 8×2 matrix combination layout with conditions. The DMSO dilutions were further diluted […] into cell culture medium (IMDM, supplemented with 20% (v/v) fetal bovine serum, and 50 μg/mL gentamicin) in an intermediate dilution plate. Finally, 10 μL taken from the intermediate dilution plate were transferred to 140 μL of cells and medium per well of the final assay plate. Thus, the DMSO dilutions used for the mono- and the combination-treatment were diluted 1:660, and the DMSO concentration in the assay was […].
(§4) Tumors were passaged as subcutaneous xenografts in NMRI nu/nu mice. At a tumor volume of 400 to 1000 mm^3, tumor-bearing mice were euthanized, and tumors were collected under sterile conditions without delay. Tumors were mechanically disaggregated and subsequently incubated with an enzyme cocktail consisting of collagenase type IV (41 U/mL), DNase I (125 U/mL), hyaluronidase type III (100 U/mL), and dispase II (1 U/mL) in RPMI 1640 medium at 37° C. for 60 to 120 minutes. Cells were passed through sieves of 100 μm and 40 μm mesh size, and washed with RPMI 1640 medium. The percentage of viable cells was determined in a Neubauer-hemocytometer using trypan blue exclusion. Aliquots of the cells were frozen down and stored in liquid nitrogen vapor phase. On each day of an experiment, a frozen aliquot of tumor cells was thawed and used for preparation of assay plates.
(§5) The clonogenic assay was carried out in a 96 well plate format using ultra low attachment plates. For each test, plates were prepared as follows: each test well contained a layer of semi-solid medium with tumor cells (50 μL), and a second layer of medium supernatant with or without test compound (100 μL). The cell layer consisted of […] to 12.5×10^3 tumor cells per well, which were seeded in 50 μL/well cell culture medium (IMDM, supplemented with 20% (v/v) fetal bovine serum, 50 μg/mL gentamicin, and 0.4% (w/v) agar). After 24 hours, the soft-agar layer was covered with 90 μL of the same culture medium without agar, and 10 μL of control medium or test compound after serial dilution in DMSO for the duration of the experiment (continuous exposure, 100 μL drug overlay).

[3] = test system: PAXF1657 organoid, pancreatic cancer; assay: 3D clonogenic assay in patient derived organoids; format: cell-based, human
Description: as §2, §3, §4, §5

[4] = test system: CXF2129 organoid, colon cancer; assay: 3D clonogenic assay in patient derived organoids; format: cell-based, human
Description: as §2, §3, §4, §5

[5] = test system: CXF1256 organoid, colon cancer; assay: 3D clonogenic assay in patient derived organoids; format: cell-based, human
Description: as §2, §3, §4, §5

[6] = test system: PAXF2131 organoid, Pancreatic cancer; assay: 3D clonogenic assay in patient derived organoids; format: cell-based, human
Description: as §2, §3, §4, §5

[7] = test system: MAXFTN2990 organoid, breast cancer (triple negative); assay: 3D clonogenic assay in patient derived organoids; format: cell-based, human
Description: as §2, §3, §4, §5

[8] = test system: MAXFTN449 organoid, breast cancer (triple negative); assay: 3D clonogenic assay in patient derived organoids; format: cell-based, human
Description: as §2, §3, §4, §5

[9] = in the presence of 5 μM Compound 1
[10] = in the presence of 20 μM Compound 1
[11] = chemotherapy dose titration + 5 μM Compound 1 vs chemotherapy alone
[12] = chemotherapy dose titration + 20 μM Compound 1 vs chemotherapy alone

SMILES: O=c1[nH]cc(F)c(=O)[nH]1 [Compound 5-FU, 5-Fluorouracil]
- EC50 (NCI-H460 cell line; in the absence of Compound 1): 2600 nM
- EC50 (NCI-H460 cell line; [9]): 1600 nM
- EC50 (NCI-H460 cell line; [10]): 1700 nM
- EC50 (A549 cell line; in the absence of Compound 1): 2400 nM
- EC50 (A549 cell line; [9]): 2600 nM
- EC50 (A549 cell line; [10]): 1500 nM
- EC50 (HT29 cell line; in the absence of Compound 1): 2500 nM
- EC50 (HT29 cell line; [9]): 2500 nM
- EC50 (HT29 cell line; [10]): 1600 nM
- potency of 5-FU in the presence of Compound 1 relative to 5-FU potency in the absence of Compound 1 [1]: ≤ 2 fold
- EC50 (EMT6 cell line; in the absence of Compound 1): 2700 nM
- EC50 (EMT6 cell line; [9]): 2500 nM
- EC50 (EMT6 cell line; [10]): 2600 nM
- EC50 (4T1.2 cell line; 4 days after treatment, in the absence of Compound 1): 570 nM
- EC50 (4T1.2 cell line; 4 days, in the presence of 5 μM Compound 1): 500 nM
- EC50 (4T1.2 cell line; 4 days, in the presence of 20 μM Compound 1): 490 nM
- Combination activity 5 μM Compound 1 (cAUC % reduction) [2, 11]: 25%
- Combination activity 20 μM Compound 1 (cAUC % reduction) [2, 12]: 18%
- Combination activity 5 μM Compound 1 (cAUC % reduction) [3, 11]: 32%
- Combination activity 20 μM Compound 1 (cAUC % reduction) [3, 12]: 32%
- Combination activity 5 μM Compound 1 (cAUC % reduction) [4, 11]: 42%
- Combination activity 20 μM Compound 1 (cAUC % reduction) [4, 12]: 31%
- Combination activity 5 μM Compound 1 (cAUC % reduction) [5, 11]: 78%
- Combination activity 20 μM Compound 1 (cAUC % reduction) [5, 12]: 79%
- Combination activity 5 μM Compound 1 (cAUC % reduction) [6, 11]: 52%
- Combination activity 20 μM Compound 1 (cAUC % reduction) [6, 12]: 67%
- Combination activity 5 μM Compound 1 (cAUC % reduction) [7, 11]: −25%
- Combination activity 20 μM Compound 1 (cAUC % reduction) [7, 12]: 8%
- Combination activity 5 μM Compound 1 (cAUC % reduction) [8, 11]: 29%
- Combination activity 20 μM Compound 1 (cAUC % reduction) [8, 12]: 14%
